# Reference: patent US20240345094A1, “DOUBLE FRAGMENTATION ISOBARIC TAGGING” (Saint Louis University, priority 2023, published 2024)
# “Also recorded” adds a separate entry of the source.
# Tested on: Bovine aortic endothelial cells
# Assay: Changes in thiol metabolism upon γ-glutamyl-cysteine synthetase inhibition (6-plex tagged LC-MS of cell lysates)
# Format: cell-based
# Settings: 250 μM BSO for 16 hours vs reduced-serum media control
# Procedure: Cell culture and lysis: Bovine aortic endothelial cells between passage number 7 and 10 were cultured to confluency in 6 cm plates with Dulbecco's modified eagle medium (DMEM) supplemented with 10% fetal bovine serum (FBS) at 37° C. and 5% CO2. Cell media was swapped with DMEM supplemented with 2% FBS and 250 μM BSO. Control plates were swapped to DMEM with 2% FBS. All plates were lysed after 16 hours as previously described (Filla, L. A., et al., Anal Bioanal Chem 2019, 411 (24), 6399-6407). Briefly, the media was removed and the cells were rapidly rinsed with 1 mL of phosphate-buffered saline. Cells were lysed with the addition of 500 μL of cold 80/20 MeOH/H2O containing 100 mM formic acid and 5 μM of D4 homocysteine as an internal standard. Plates were placed on a dry ice-ethanol bath and the cell contents were collected, then centrifuged at 21,100×g for three minutes. The supernatant was immediately collected and stored on dry ice until derivatization.
# Thiol Derivatization: Thiol metabolite stocks were created as individual 500 μM vials with 50/50 H2O/MeOH containing 20 mM formic acid and stored at −20° C. to minimize degradation. Lower concentration stocks were produced by further dilution and derivatized immediately. For cell lysate reactions, 100 μL of the lysate was used for each reaction. Thiol metabolites were added to 100 μL of 100 mM ammonium bicarbonate pH 8. An isotopic iodide tag was then immediately added (100 μL, 100 μM) and left at room temperature to react for 16 hours to ensure a complete reaction. All iodide tags and reactions were handled in the dark to prevent degradation. After the reaction was completed, the samples were mixed with the other isotope variants, dried in a vacuum centrifuge, and reconstituted to 100 μL in the starting mobile phase conditions.
# Liquid Chromatography: Fused silica capillary (Polymicro Technologies, Phoenix, AZ) was used to fabricate columns with an inner diameter of 50 μm as previously described (Edwards, J. L., et al, Journal of Chromatography A 2007, 1172 (2), 127-134). Briefly, 50 μm inner diameter capillary was cut to 25 cm, a photopolymerized frit placed 30 mm from the end, then a tip pulled with a Sutter P2000 micropipette puller and etched in 50% HF. The capillary bed was packed to 20 cm with Atlantis silica HILIC 3 μm particles (Waters Corp, Milford, MA). After equilibration the capillary was cut to 17.5 cm for analysis. Flow was delivered by a Thermo Vanquish LC (Thermo Fisher Scientific, Waltham, MA) connected to a stainless steel tee to split the flow. A 50 μm×100 cm open capillary was used as the split to direct 115 nL of the total flow and 4 nL injections to the capillary column (split ratio 1:1500 for bulk flow of 175 μL/min and injection of 6 μL). The split ratio was determined by calculating flow through the capillary based on the experimental dead time and column dimensions. Mobile phase A was pure acetonitrile and mobile phase B was 25 mM ammonium acetate in 80/20 (water/ACN) with 0.05% acetic acid as an additive. The gradient is supplied in Table 1 below.
# MS Analysis: A Q-Exactive mass spectrometer (Thermo Fisher Scientific, Waltham, MA) was used for all analyses. An MS^1 survey scan operated at a resolution of 17.5K with an ion injection time of 50 ms and AGC of 1e^6 for m/z 250-650. […] These MS^2 scans operated at a resolution of 140K with an ion injection time of 200 ms, AGC of 1e^5, and the optimized collision energy determined for each analyte. […]
smiles,measurement,setting,value
"CCCCS(=N)(=O)CCC(N)C(=O)O (centres unmarked) [BSO, Buthionine sulfoximine]",GSH level change,"n=3, FIG. 5B",Significant decreases; also recorded: glutathione depletion was observed
same,cysteinyl-glycine level change,"n=3, FIG. 5B",Significant decreases
same,Glutamyl-cysteine level change,"n=3, near the limit of detection",did not change significantly
same,cysteine level change,"n=3, trended upward",did not change
same,homocysteine level change,"n=3, trended upward",did not change
